Patent US8324172B2, “G protein coupled receptor agonists and antagonists and methods of activating and inhibiting G protein coupled receptors using the same” (Tufts Medical Center, Inc., priority 2000, dated 2012)
Residue numbers refer to the chain shown, from its start. Values joined by “and” are separate entries in the source; they are usually repeats but may differ in a detail not shown here. Equal entries are not always repeated. Where a SMILES comes first, the peptide text is derived from it. The star is where a group is joined. Palmitoyl = CCCCCCCCCCCCCCCC(=O)*

Key:
[1] = tested on: MDA-MB-231 breast cancer cells; experiment: Chemoinvasion of MDA-MB-231 breast cancer cells (Transwell); assay type: cell-based, human; conditions: NIH3T3 conditioned medium
Method: Experiments were performed in order to determine if application of pepducins based on the i3 loops of PAR1, PAR2, or PAR4 would inhibit migration and invasion of breast cancer cells. It was determined that the highly invasive MDA-MB-231 breast cancer cell line expressed very high levels of functional PAR1, PAR2 and PAR4. […] Pepducins were added with NIH3T3 Conditioned medium (CM) to the bottom well of a Transwell apparatus.

delta377 PAR1 = experiment: InsP formation in COS7 cells expressing delta377 (C-tail deleted) PAR1 mutant; assay type: cell-based, human; conditions: relative to wild type PAR1
S309P PAR1 = molecular target: T1, S309P PAR1 (Homo sapiens, UniProt P25116, S309P); experiment: InsP formation in COS7 cells expressing S309P PAR1 mutant; assay type: cell-based; conditions: relative to wild type PAR1
T1 construct: expressed in transfected cells; host or cells: COS7, transient
T1 sequence (P25116 22-425 S309P): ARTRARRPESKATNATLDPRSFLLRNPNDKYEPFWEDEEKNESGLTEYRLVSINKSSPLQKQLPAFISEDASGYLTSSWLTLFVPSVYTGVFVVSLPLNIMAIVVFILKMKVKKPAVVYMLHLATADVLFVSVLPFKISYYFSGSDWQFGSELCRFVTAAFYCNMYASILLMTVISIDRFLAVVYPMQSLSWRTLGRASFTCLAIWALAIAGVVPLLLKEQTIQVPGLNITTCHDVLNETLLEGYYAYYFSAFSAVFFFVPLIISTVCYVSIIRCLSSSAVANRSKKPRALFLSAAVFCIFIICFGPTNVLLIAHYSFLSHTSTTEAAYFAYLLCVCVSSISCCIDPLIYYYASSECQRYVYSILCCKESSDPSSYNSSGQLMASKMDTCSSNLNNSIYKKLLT

PAR1 [2] = molecular target: T2, PAR1 (Homo sapiens, UniProt P25116); experiment: InsP formation in COS7 cells transiently transfected with wild-type PAR1; assay type: cell-based
T2 construct: expressed in transfected cells
T2 sequence (P25116 22-425): T1 sequence (P25116 22-425 S309P) with P288S

murine platelets (PAR4) = experiment: Aggregation of washed murine platelets; conditions: read-out: EC50 of aggregation of murine platelets
PAR1 [3] = molecular target: T2, PAR1; experiment: InsP formation (PLC-β) in Rat1 fibroblasts expressing human PAR1; assay type: cell-based; conditions: 0.1 nM thrombin
PAR4 [4] = molecular target: T3, PAR4 (Homo sapiens, UniProt Q96RI0); experiment: InsP formation in COS7 cells expressing PAR4; assay type: cell-based; set-up: expressed in transfected cells; host or cells: COS7, transient
T3 sequence (Q96RI0 18-385): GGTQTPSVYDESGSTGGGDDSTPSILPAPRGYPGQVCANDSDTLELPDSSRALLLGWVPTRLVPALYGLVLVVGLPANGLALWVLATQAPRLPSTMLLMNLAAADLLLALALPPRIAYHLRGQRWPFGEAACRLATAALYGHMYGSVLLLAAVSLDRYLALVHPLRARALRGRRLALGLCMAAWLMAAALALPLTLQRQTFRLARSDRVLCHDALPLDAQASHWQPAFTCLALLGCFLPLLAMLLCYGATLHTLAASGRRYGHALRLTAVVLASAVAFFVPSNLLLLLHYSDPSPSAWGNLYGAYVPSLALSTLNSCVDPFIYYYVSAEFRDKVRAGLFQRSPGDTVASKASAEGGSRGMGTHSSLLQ

PAR1 [5] = molecular target: T2, PAR1; experiment: Inhibition of SFLLRN-induced human platelet aggregation; assay type: cell-based; conditions: 3 μM pepducin, 1 min preincubation
PAR4 [6] = molecular target: T3, PAR4; experiment: Inhibition of PAR4-dependent platelet Ca2+ signal (AYPGKF); assay type: cell-based; conditions: 3 micromolar pepducin; 200 Micromolar AYPGKF
Method: (§1) Platelet Ca2+ measurements were performed as in Example 1.
(§2) The integrated Ca^2+ response for the individual treatments are relative to the full Ca^2+ responses for each agonist (100%) recorded in the absence of P4pal-10 (top trace).

[7] = tested on: TXA2, ADP, collagen, or GPIb/IX/V receptors; experiment: Inhibition of human platelet aggregation induced by U46619, ADP, collagen or ristocetin; assay type: cell-based; conditions: 5 μM pepducin, ristocetin
Source text: 84, 1440 (1989)) and von Willebrand factor (GPIb/IX/V) (Savage et al., Cell 94, 657 (1998)) using platelets as the biologically-relevant system.

[8] = tested on: thrombin receptors on human platelets; experiment: Inhibition of thrombin-induced human platelet aggregation; conditions: 3 μM pepducin
PAR1 [9] = molecular target: T2, PAR1; experiment: Inhibition of PAR1-dependent platelet Ca2+ signal; assay type: cell-based; conditions: SFLLRN (or thrombin) after peptide pre-treatment
Method: as §1, §2

PAR4 [10] = molecular target: T3, PAR4; experiment: Inhibition of AYPGKF-induced human platelet aggregation; assay type: cell-based; conditions: AYPGKF
[11] = Tail bleeding time and rebleeding in mice; conditions: 3 μmoles/L i.v.

delta377 PAR1, sequence (P25116 42-376 limits assumed): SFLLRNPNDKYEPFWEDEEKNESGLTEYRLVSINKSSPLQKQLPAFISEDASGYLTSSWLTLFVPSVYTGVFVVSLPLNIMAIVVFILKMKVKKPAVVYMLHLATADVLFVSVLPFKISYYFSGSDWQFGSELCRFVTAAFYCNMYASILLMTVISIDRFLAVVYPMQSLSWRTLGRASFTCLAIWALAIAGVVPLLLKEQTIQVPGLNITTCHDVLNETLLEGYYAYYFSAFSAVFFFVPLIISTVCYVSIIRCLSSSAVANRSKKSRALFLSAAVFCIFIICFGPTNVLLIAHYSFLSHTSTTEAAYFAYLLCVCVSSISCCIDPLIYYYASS

CCCCCCCCCCCCCCCC(=O)N[C@@H](CCCCN)C(=O)N[C@@H](CCCCN)C(=O)N[C@@H](CO)C(=O)N[C@@H](CCCNC(=N)N)C(=O)N[C@@H](C)C(=O)N[C@@H](CC(C)C)C(=O)N[C@@H](Cc1ccccc1)C(N)=O [Pepducin P1pal-7, Pal-KKSRALF] (Palmitoyl-KKSRALF-NH2)
inhibition of chemoinvasion [1]: 30%
agonist activity in platelet aggregation (human platelets): loss of stimulatory activity

thrombin [reference compound]
shift of potency on delta377 mutant (delta377 PAR1): 22 fold
loss of efficacy on S309P mutant (S309P PAR1): 1.6 fold
loss of potency on S309P mutant (S309P PAR1): 17 fold
InsP stimulation of WT PAR1 (100%) (PAR1 [2]; 0.1 nM thrombin): 9.6 fold
EC50 (murine platelets (PAR4)): 0.6 nM
full PAR1 thrombin response (InsP stimulation) of individual experiments (PAR1 [3]): 7.6 fold and 9.4 fold and 12.4 fold and 18 fold and 9.5 fold and 5.2 fold
full extracellular agonist-stimulated InsP response (PAR4 [4]; 10 nM thrombin): 3.1 fold

CCCCCCCCCCCCCCCC(=O)N[C@@H](CCCNC(=N)N)C(=O)N[C@@H](CCSC)C(=O)N[C@@H](CC(C)C)C(=O)N[C@@H](CCCNC(=N)N)C(=O)N[C@@H](CO)C(=O)N[C@@H](CO)C(=O)N[C@@H](C)C(=O)N[C@@H](CCSC)C(=O)N[C@@H](CC(=O)O)C(=O)N[C@@H](CCC(=O)O)C(=O)N[C@@H](CC(N)=O)C(=O)N[C@@H](CO)C(=O)N[C@@H](CCC(=O)O)C(=O)N[C@@H](CCCCN)C(=O)N[C@@H](CCCCN)C(=O)N[C@@H](CCCNC(=N)N)C(=O)N[C@@H](CCCCN)C(=O)N[C@@H](CCCNC(=N)N)C(=O)N[C@@H](C)C(=O)N[C@H](C(=O)N[C@@H](Cc1ccccc1)C(N)=O)[C@@H](C)CC [Pepducin P2pal-21F]
inhibition of chemoinvasion [1]: 90%
activation of PAR1 (InsP) (PAR1 [2]; COS7 cells, FIG. 2G): activated PAR1
activation of PAR4 (InsP) (PAR4 [4]; COS7 cells): not PAR4

CCCCCCCCCCCCCCCC(=O)N[C@@H](CCCNC(=N)N)C(=O)N[C@@H](CS)C(=O)N[C@@H](CC(C)C)C(=O)N[C@@H](CO)C(=O)N[C@@H](CO)C(=O)N[C@@H](CO)C(=O)N[C@@H](C)C(=O)N[C@H](C(=O)N[C@@H](C)C(=O)N[C@@H](CC(N)=O)C(=O)N[C@@H](CCCNC(=N)N)C(=O)N[C@@H](CO)C(N)=O)C(C)C [Pepducin P1pal-12] (Palmitoyl-RCLSSSAVANRS-NH2)
aggregation blocked (PAR1 [5]): 75-95%
inhibition of PAR4-dependent Ca2+ response (PAR4 [6]): does not block PAR4 activation
block of aggregation by ligands of other platelet receptors [7]: did not block aggregation
inhibition of aggregation ([8]; 3 nM thrombin, 1 min): completely blocked aggregation
inhibition of aggregation ([8]; 20 nM thrombin): not appreciably blocked
inhibition of PAR1-dependent Ca2+ response (PAR1 [9]): effectively inhibits PAR1 activation
inhibition of PAR1-dependent Ca2+ response (PAR1 [9]; listed as P1pal12): completely block PAR1 signaling
agonist activity in platelet aggregation (human platelets): loss of stimulatory activity
inhibition of PAR4-dependent platelet aggregation (PAR4 [10]): does not inhibit PAR4-dependent platelet aggregation
effect on tail-bleeding time [11]: did not prolong tail-bleeding time
mean total bleeding time [11]: 95 s
re-bleeding / unstable haemostasis [11]: did not prolong tail-bleeding time or result in unstable haemostasis
re-bleeding / unstable haemostasis ([11]; listed as P1pal12): not observed
